Laboratory results taken from patent US20150258057A1, “FATTY ACID DERIVATIVES FOR TREATING INFECTIOUS DISEASES” (IMARKO RESEARCH S.A., priority 2014, published 2015).

Legend:
Assay in all cases: diffusion method in agar medium (zone of inhibition)
Assay type in all cases: cell-based
[1] = system: Bacillus coagulans (spores); settings: for inhibition of growth (in words): Table 2
Description: (§1) The antibiotic activity of zinc and copper soaps (salts of copper caprylate, caprate, caproate and laurate; and salts of zinc caprylate, caprate, caproate and laurate) was measured according to the diffusion method in agar medium, the protocol of which is detailed below.
(§2) This method consists in depositing on inoculated agar culture medium sterile absorbent paper discs impregnated with the antibiotic solution to be examined.
(§3) The activity of an antibiotic is estimated by comparing the inhibition of growth of sensitive microorganisms caused respectively by known concentrations of the antibiotic to be examined and of a reference substance.
(§4) The diluents and culture media used are: • 0.85% physiological saline (AES, reference PHYW-AEB110389), • buffered peptone water (bioMerieux, reference 42111), • Sabouraud glucose agar with chloramphenicol (bioMerieux, reference 42620), • Neutral MRS agar pH=6.4 (AES, reference AEB621756N), • Trypcase soy agar (bioMerieux, reference 41466), • Cetrimide agar (bioMerieux, reference 43565).
(§5) The agar culture medium is poured into a petri dish. Once solidified, the surface of the agar is inoculated in a layer with the selected microorganism. Then fitter paper discs, 6.6 mm in diameter, impregnated with the various solutions to be tested are placed on the surface. The petri dishes are left at room temperature for about 1 hour to allow the substances to diffuse in the agar.
(§6) The cultures are then incubated at 32.5° C.±2.5° C. The agar media and the incubation conditions are suited to the inoculated microorganism.
(§7) The diameter of the zone of inhibition is a function of the concentration, diffusion and activity of the tested substance placed on the filter.

Lactobacillus paracasei = settings: for inhibition of growth (in words): Table 2
Description: as §1, §2, §3, §4, §5, §6, §7

Saccharomyces cerevisiae = settings: for inhibition of growth (in words): Table 2
Description: as §1, §2, §3, §4, §5, §6, §7

[2] = system: Lactobacillus acidophilus; settings: for inhibition of growth (in words): Table 2
Description: as §1, §2, §3, §4, §5, §6, §7

Lactobacillus plantarum = settings: for inhibition of growth (in words): Table 2
Description: as §1, §2, §3, §4, §5, §6, §7

Bifidobacterium = settings: for inhibition of growth (in words): Table 2
Description: as §1, §2, §3, §4, §5, §6, §7

Pseudomonas putida = settings: 200 mg in 2 ml of DMSO, disc 6.6 mm
Description: as §1, §2, §3, §4, §5, §6, §7

[3] = 200 mg in 2 ml of DMSO, disc 6.6 mm

Row | Structure (SMILES) | inhibition of growth (in words) [1] | inhibition of growth (in words) (Lactobacillus paracasei) | inhibition of growth (in words) (Saccharomyces cerevisiae) | inhibition of growth (in words) [2] | inhibition of growth (in words) (Lactobacillus plantarum) | inhibition of growth (in words) (Bifidobacterium) | Diameter of inhibition [1, 3] [mm] | Diameter of inhibition (Lactobacillus paracasei; [3]) [mm] | Diameter of inhibition (Saccharomyces cerevisiae; [3]) [mm] | Diameter of inhibition [2, 3] [mm] | Diameter of inhibition (Lactobacillus plantarum; [3]) [mm] | Diameter of inhibition (Pseudomonas putida) [mm] | Diameter of inhibition (Bifidobacterium; [3]) [mm]
1 | CCCCCCCCCCCC(=O)OCC(O)CO (stereo not shown) [Glycerol monolaurate] | inhibition | no inhibition | no inhibition | inhibition | no inhibition | no inhibition |  |  |  |  |  |  | 
2 | CCCCCCCC(=O)OCC(O)CO (stereo not shown) [Glyceryl caprylate] | inhibition | inhibition | inhibition | inhibition | inhibition | inhibition |  |  |  |  |  |  | 
3 | CCCCCCCC(=O)Oc1cc(C)ccc1C(C)C [Thymol caprylate] |  |  |  |  |  |  | 8.5 | 7.75 | 7.28 | 8.2 | 6.9 | 7.86 | 9
